According to patent US9255100B2 (BAYER INTELLECTUAL PROPERTY GMBH, priority 2010, dated 2016):

Target: T1, N-terminally GST-tagged human full length recombinant Mps-1 kinase (Homo sapiens, UniProt P33981)
T1 construct: N-terminally GST-tagged human full length recombinant Mps-1 kinase; purchased Invitrogen, Karslruhe, Germany PV4071
T1 sequence (P33981 1-857): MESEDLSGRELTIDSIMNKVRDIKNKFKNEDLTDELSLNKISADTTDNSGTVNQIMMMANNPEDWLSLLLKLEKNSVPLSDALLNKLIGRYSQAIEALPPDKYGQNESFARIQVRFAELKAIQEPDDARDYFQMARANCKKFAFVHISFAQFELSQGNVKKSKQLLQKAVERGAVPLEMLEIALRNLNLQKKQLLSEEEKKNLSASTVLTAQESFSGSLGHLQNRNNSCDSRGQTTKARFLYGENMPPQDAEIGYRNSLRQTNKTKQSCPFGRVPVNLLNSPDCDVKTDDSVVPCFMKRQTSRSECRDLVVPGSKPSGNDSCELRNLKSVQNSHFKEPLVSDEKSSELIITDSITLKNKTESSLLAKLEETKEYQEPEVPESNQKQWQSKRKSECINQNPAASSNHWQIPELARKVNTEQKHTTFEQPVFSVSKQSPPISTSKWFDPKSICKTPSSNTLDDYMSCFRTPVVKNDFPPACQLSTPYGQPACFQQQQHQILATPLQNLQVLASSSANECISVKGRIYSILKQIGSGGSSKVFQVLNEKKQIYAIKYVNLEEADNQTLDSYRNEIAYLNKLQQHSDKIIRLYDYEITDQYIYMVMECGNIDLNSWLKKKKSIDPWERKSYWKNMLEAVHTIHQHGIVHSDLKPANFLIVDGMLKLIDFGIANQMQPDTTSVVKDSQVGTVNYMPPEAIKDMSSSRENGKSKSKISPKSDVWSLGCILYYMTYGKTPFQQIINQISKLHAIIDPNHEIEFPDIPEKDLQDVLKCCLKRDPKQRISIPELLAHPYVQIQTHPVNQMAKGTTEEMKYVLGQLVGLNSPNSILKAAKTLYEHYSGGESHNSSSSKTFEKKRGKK
Assay: Mps-1 kinase assay (TR-FRET)
Assay type: biochemical
Details: Mps1 IC50 [nM], 10 μM ATP, 1 μM peptide substrate, 60 min at 22° C.
How it was run: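 TR-FRET signal between a Europium anti-phospho-Ser/Thr antibody and streptavidin-XLent reported phosphorylation of a biotinylated peptide by GST-tagged full-length Mps-1. Enzyme was near 1 nM final, chosen per lot for linearity.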

SMILES	IC50
CC(C)(O)CNc1cc(Sc2ccccc2)nn2c(-c3ccc(C(=O)NC4CC4)cc3O)cnc12 [Example 51B, N-cyclopropyl-3-hydroxy-4-{8-[(2-hydroxy-2-methylpropyl)amino]-6-(phenylsulfanyl)imidazo[1,2-b]pyridazin-3-yl}benzamide]	1.2 nM
Cc1cc(-c2cnc3c(NCCC(F)(F)F)cc(C4CC4)nn23)ccc1C(=O)NC1CC1 [Example 48, N-cyclopropyl-4-{6-cyclopropyl-8-[(3,3,3-trifluoropropyl)amino]imidazo[1,2-b]pyridazin-3-yl}-2-methylbenzamide]	1.4 nM
Cc1ccccc1-c1cc(NCC(C)C)c2ncc(-c3ccc(C(=O)NC4CC4)cc3)n2n1 [Example 110]	1.3 nM
Cc1cc(-c2cnc3c(NCC(C)(C)O)cc(Oc4cccc(F)c4)nn23)ccc1C(=O)NC1CC1 [Example 75, N-cyclopropyl-4-{6-(3-fluorophenoxy)-8-[(2-hydroxy-2-methylpropyl)amino]imidazo[1,2-b]pyridazin-3-yl}-2-methylbenzamide]	< 0.7 nM
Cc1cc(-c2cnc3c(NCCCO)cc(-c4ccnn4C)nn23)ccc1C(=O)NC1CC1 [Example 211, N-cyclopropyl-4-{8-[(3-hydroxypropyl)amino]-6-(1-methyl-1H-pyrazol-5-yl)imidazo[1,2-b]pyridazin-3-yl}-2-methylbenzamide]	5.8 nM
CC(C)CNc1cc(-c2cncc(C#N)c2)nn2c(-c3ccc(C(=O)NC4CC4)cc3)cnc12 [Example 147, 4-{6-(5-Cyanopyridin-3-yl)-8-[(2-methylpropyl)amino]imidazo[1,2-b]pyridazin-3-yl}-N-cyclopropylbenzamide]	2.2 nM
CC(C)CNc1cc(-c2ccnc3ccccc23)nn2c(-c3ccc(C(=O)NC4CC4)cc3)cnc12 [Example 112, N-cyclopropyl-4-{8-[(2-methylpropyl)amino]-6-(quinolin-4-yl)imidazol [1,2-b]pyridazin-3-yl} benzamide]	5.1 nM
CC(=O)Nc1cccc(-c2cc(NCC(C)C)c3ncc(-c4ccc(C(=O)NC5CC5)cc4)n3n2)c1 [Example 126, 4-{6-[3-(Acetylamino)phenyl]-8-[(2-methylpropyl)amino]imidazo[1,2-b]pyridazin-3-yl}-N-cyclopropylbenzamide]	2 nM
CC(C)CNc1cc(-c2cccc(Cl)c2)nn2c(-c3ccc(C(=O)NC4CC4)cc3)cnc12 [Example 124, 4-{6-(3-Chlorophenyl)-8-[(2-methylpropyl)amino]imidazo[1,2-b]pyridazin-3-yl}-N-cyclopropylbenzamide]	4.7 nM
CC(C)CNc1cc(Cl)nn2c(-c3ccc(C(=O)NC4CC4)c(Cl)c3)cnc12 [Example 181, 2-Chloro-4-{6-chloro-8-[(2-methylpropyl)amino]imidazo[1,2-b]pyridazin-3-yl}-N-cyclopropyl-benzamide]	39.9 nM
Cc1cc(-c2cnc3c(NCC(C)(C)O)cc(Oc4cccc(C#N)c4)nn23)ccc1C(=O)NC1CC1 [Example 82, 4-{6-(3-Cyanophenoxy)-8-[(2-hydroxy-2-methylpropyl)amino]imidazo[1,2-b]pyridazin-3-yl}-N-cyclopropyl-2-methylbenzamide]	0.3 nM
CC(C)CNc1cc(-c2ccncc2)nn2c(-c3ccc(C(=S)NC4CC4)cc3)cnc12 [Example 13, N-cyclopropyl-4-[8-(isobutylamino)-6-(pyridin-4-yl)imidazo[1,2-b]pyridazin-3-yl]benzenecarbothioamide]	1.8 nM
Cc1cc(-c2cnc3c(NCC(C)(C)O)cc(-c4ccc(F)cc4)nn23)ccc1C(=O)NC1CC1 [Example 7, N-cyclopropyl-4-{6-(4-fluorophenyl)-8-[(2-hydroxy-2-methylpropyl)amino]imidazo[1,2-b]pyridazin-3-yl}-2-methylbenzamide]	1.2 nM
CC(C)CNc1cc(-c2ccc(O)cc2)nn2c(-c3ccc(C(=O)NC4CC4)cc3)cnc12 [Example 141, N-cyclopropyl-4-{6-(4-hydroxyphenyl)-8-[(2-methylpropyl)amino]imidazo[1,2-b]pyridazin-3-yl}benzamide]	2.4 nM
Cc1cccc(Oc2cc(NCC(C)(C)O)c3ncc(-c4ccc(C(=O)NC5CC5)c(C)c4)n3n2)c1 [Example 97, N-cyclopropyl-4-{8-[(2-hydroxy-2-methylpropyl)amino]-6-(3-methylphenoxy)imidazo[1,2-b]pyridazin-3-yl}-2-methylbenzamide]	0.2 nM

Results, then the compound that gave them:

IC50	SMILES
148 nM	COC(=O)c1cc(F)ccc1-c1cc(NCC(C)(C)O)c2ncc(-c3ccc(C(=O)NC4CC4)c(C)c3)n2n1 [Example 279, 2-{3-[4-(cyclopropylcarbamoyl)-3-methylphenyl]-8-[(2-hydroxy-2-methylpropyl)amino]imidazo[1,2-b]pyridazin-6-yl}-5-fluoro-benzoic acid methyl ester]
0.6 nM	Cc1ccc(F)cc1Nc1cc(NCCCC(F)(F)F)c2ncc(-c3ccc(C(=O)NC4CC4)c(C)c3)n2n1 [Example 448, N-cyclopropyl-4-{6-[(5-fluoro-2-methylphenyl)amino]-8-[(4,4,4-trifluorobutyl)amino]imidazo[1,2-b]pyridazin-3-yl}-2-methylbenzamide]
6.7 nM	Cc1cc(-c2cnc3c(NCC(C)(C)O)cc(Oc4ccn[nH]4)nn23)ccc1C(=O)NC1CC1 [Example 414, N-cyclopropyl-4-{8-[(2-hydroxy-2-methylpropyl)amino]-6-(1H-pyrazol-5-yloxy)imidazo[1,2-b]pyridazin-3-yl}-2-methylbenzamide]
0.4 nM	CNc1cc(Oc2ccc(F)c(F)c2)nn2c(-c3ccc(C(=O)NC4CC4)c(C)c3)cnc12 [Example 529, N-cyclopropyl-4-[6-(3,4-difluorophenoxy)-8-(methylamino)imidazo [1,2-b]pyridazin-3-yl]-2-methylbenzamide]
1.1 nM	COc1ccc(Nc2cc(NCC(C)(C)O)c3ncc(-c4ccc(C(=O)NC5CC5)c(C)c4)n3n2)cn1 [Example 366, N-cyclopropyl-4-{8-[(2-hydroxy-2-methylpropyl)amino]-6-[(6-methoxypyridin-3-yl)-amino]imidazo[1,2-b]pyridazin-3-yl}-2-methylbenzamide]
1.1 nM	CCNC(=O)c1ccc(-c2cnc3c(NCC4CCOCC4)cc(Oc4ccccc4C)nn23)cc1C [Example 596, N-ethyl-2-methyl-4-{6-(2-methylphenoxy)-8-[(tetrahydro-2H-pyran-4-ylmethyl)a-mino]imidazo[1,2-b]pyridazin-3-yl}benzamide]
0.3 nM	Cc1cc(-c2cnc3c(NCCC(F)(F)F)cc(Nc4c(O)cccc4F)nn23)ccc1C(=O)NC1CC1 [Example 478, N-cyclopropyl-4-{6-[(2-fluoro-6-hydroxyphenyl)amino]-8-[(3,3,3-tri-fluoropropyl)amino]imidazo[1,2-b]pyridazin-3-yl}-2-methylbenzamide]
0.3 nM	Cc1cc(-c2cnc3c(NCCC(F)(F)F)cc(Oc4cccc(Cl)c4)nn23)ccc1C(=O)NC1CC1 [Example 266, 4-{6-(3-chlorophenoxy)-8-[(3,3,3-trifluoropropyl)amino]imidazo[1,2-b]pyridazin-3-yl}-N-cyclopropyl-2-methylbenzamide]
0.6 nM	Cc1cc(-c2cnc3c(NCC(C)(C)O)cc(Oc4cnn(C)c4)nn23)ccc1C(=O)NC1CC1 [Example 321, N-cyclopropyl-4-{8-[(2-hydroxy-2-methylpropyl)amino]-6-[(1-methyl-1H-pyrazol-4-yl)oxy]imidazo[1,2-b]pyridazin-3-yl}-2-methylbenzamide]
0.8 nM	Cc1cc(F)cc(Oc2cc(NCCCC(F)(F)F)c3ncc(-c4ccc(C(=O)NC5CC5)c(C)c4)n3n2)c1 [Example 452, N-cyclopropyl-4-{6-(3-fluoro-5-methylphenoxy)-8-[(4,4,4-trifluorobutyl)amino]imidazo[1,2-b]pyridazin-3-yl}-2-methylbenzamide]
1 nM	Cc1cc(-c2cnc3c(NCC(C)(C)O)cc(Nc4ccc(Cl)c(F)c4)nn23)ccc1C(=O)NC1CC1 [Example 401, 4-{6-[(4-chloro-3-fluorophenyl)amino]-8-[(2-hydroxy-2-methylpropyl)amino]imidazo[1,2-b]pyridazin-3-yl}-N-cyclopropyl-2-methylbenzamide]
0.2 nM	COc1cccc(Nc2cc(NCCC(F)(F)F)c3ncc(-c4ccc(C(=O)NC5CC5)c(C)c4)n3n2)c1C [Example 426, N-cyclopropyl-4-{6-[(3-methoxy-2-methylphenyl)amino]-8-[(3,3,3-trifluoropropyl)amino]imidazo[1,2-b]pyridazin-3-yl}-2-methylbenzamide]
